Assay results from US8795979B2, “Hydrolase enzyme substrates and uses thereof” (General Atomics, priority 2011, dated 2014).
Blank lines part the entries; values can stand above or below the molecule they belong to.

Legend:
Assay type in all cases: biochemical
[1] = target: T1, aryl alcohol dehydrogenase (AAD) (Pseudomonas putida, UniProt P39849); assay: Kinetic constants of AAD; conditions: recombinant Pseudomonas putida AAD
T1 construct: made in house; host or cells: E. coli
T1 sequence (P39849 1-366): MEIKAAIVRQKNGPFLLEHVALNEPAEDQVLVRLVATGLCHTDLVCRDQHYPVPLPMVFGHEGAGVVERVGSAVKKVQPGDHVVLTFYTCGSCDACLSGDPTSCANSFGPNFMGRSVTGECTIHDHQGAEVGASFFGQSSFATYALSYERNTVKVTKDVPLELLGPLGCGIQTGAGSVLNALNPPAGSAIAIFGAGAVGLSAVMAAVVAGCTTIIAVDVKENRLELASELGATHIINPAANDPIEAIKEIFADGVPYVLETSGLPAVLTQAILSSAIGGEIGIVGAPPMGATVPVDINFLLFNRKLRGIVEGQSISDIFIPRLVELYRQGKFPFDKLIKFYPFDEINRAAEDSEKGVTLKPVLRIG
Description: AAO was purified from Pleurotus eryngii using the procedures described in Guillen, F. et al., “Substrate specificity and properties of aryl-alcohol oxidase from the ligninolytic fungus Pleurotus eryngii,” Eur. J. Biochem., 209:603-611 (1992). The purification steps include concentration, anion exchange chromatography and hydrophobic interaction chromatography. DNA construct for recombinant production of Pseudomonas putida AAD was made based on the DNA sequence disclosed in Shaw, J. P. et al., Kinetic studies on benzyl alcohol dehydrogenase encoded by TOL plasmid pWW0,” J. Biol. Chem., 268:10842-10850 (1993), and the recombinant Pseudomonas putida AAD was made by overexpression in E. coli. The cycling system was combined with chemiluminescent (lumino)-hydrogen peroxide-horseradish peroxidase) reaction to form a sensitive assay.
For AAD, KNADH=9.1±2 μM; Kp-Anisyl aldehyde=6.6±0.8 μM; and kcat=30/s.

beta-galactosidase = assay: Hydrolysis by beta-galactosidase coupled with aryl alcohol oxidase, H2O2 detection; conditions: 10 mM substrate, 10 unit/ml beta-galactosidase and 20 unit/ml aryl alcohol oxidase, 37° C., 30 min
Description: (§1) The aryl alcohol dehydrogenase used in this example was recombinantly produced based on the description in Guillen and Evans, Appl. Environmental Microbiol., 60(8):2811-17 (1994) and Reiser et al., J. Biol. Chem., 269(45):28152-28159 (1994).

aryl alcohol oxidase = assay: Incubation with aryl alcohol oxidase alone, H2O2 detection; conditions: no beta-galactosidase
Description: as §1

Compound: COc1ccc(C=O)cc1 [p-Anisyl aldehyde]
Kp-Anisyl aldehyde (AAD) [1]: 6.6 ± 0.8 µM
kcat (AAD) [1]: 30 s⁻¹

Compound: COc1ccc(CO[C@@H]2OC(CO)[C@H](O)[C@@H](O)C2O)cc1 (stereo partly drawn) [p-MOBG, p-Methoxybenzyl-β-D-Galactopyranoside]
generation of H2O2 (detected by peroxidase in the presence of 4-AA and TOOS at 560 nm) (beta-galactosidase): resulted in generation of H2O2
H2O2 detected on incubation with aryl alcohol oxidase alone (aryl alcohol oxidase): no H2O2 detected

KNADH (AAD) [1]: 9.1 ± 2 µM
Compound: NC(=O)C1=CN([C@@H]2O[C@H](COP(=O)(O)OP(=O)(O)OC[C@H]3O[C@@H](n4cnc5c(N)ncnc54)[C@H](O)[C@@H]3O)[C@@H](O)[C@H]2O)C=CC1 [NADH, reference compound]
